# Test results taken from PubChem BioAssay (NCI).
#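 Five concentrations, 48 hours, 96-well plates. At the GI50, growth is halved. TGI: concentration producing complete growth inhibition.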
# What was measured:
# Assay in all cases: NCI-60 cell line screen, 48 h
# HCT-116 colon = tested on: HCT-116 colon
# SF-539 CNS = tested on: SF-539 CNS
# OVCAR-3 ovarian = tested on: OVCAR-3 ovarian
# IGROV1 ovarian = tested on: IGROV1 ovarian
# CAKI-1 renal = tested on: CAKI-1 renal
# M14 melanoma = tested on: M14 melanoma
# SK-MEL-5 melanoma = tested on: SK-MEL-5 melanoma
# NCI-H23 lung = tested on: NCI-H23 lung
# HCT-15 colon = tested on: HCT-15 colon
# HOP-62 NSCLC = tested on: HOP-62 NSCLC
SMILES,TGI (HCT-116 colon) [µM],TGI (SF-539 CNS) [µM],TGI (OVCAR-3 ovarian) [µM],TGI (IGROV1 ovarian) [µM],TGI (CAKI-1 renal) [µM],TGI (M14 melanoma) [µM],TGI (SK-MEL-5 melanoma) [µM],TGI (NCI-H23 lung) [µM],TGI (HCT-15 colon) [µM],TGI (HOP-62 NSCLC) [µM],GI50 (HCT-116 colon) [µM],GI50 (SF-539 CNS) [µM],GI50 (OVCAR-3 ovarian) [µM],GI50 (IGROV1 ovarian) [µM],GI50 (CAKI-1 renal) [µM],GI50 (M14 melanoma) [µM],GI50 (SK-MEL-5 melanoma) [µM],GI50 (NCI-H23 lung) [µM],GI50 (HCT-15 colon) [µM],GI50 (HOP-62 NSCLC) [µM]
CC(C)C1CC2C(=O)N(c3ccccc3)C(=O)C2c2[nH]c3ccccc3c21 (stereo not given),14.8,67.5,38,> 100,> 100,> 100,> 100,84,> 100,> 100,,,,,,,,,,
COc1ccc(-c2nc(C(=O)c3ccccc3)n(CC(=O)c3ccccc3)c2-c2ccc(OC)cc2)cc1,> 100,> 100,> 100,> 100,> 100,> 100,> 100,> 100,> 100,> 100,> 100,> 100,> 100,> 100,> 100,> 100,> 100,> 100,> 100,> 100
O=C(O)c1cc2ccccc2oc1=O,> 100,> 100,> 100,> 100,> 100,> 100,> 100,> 100,> 100,> 100,,,,,,,,,,
CCCCCCCCCc1cc[n+](CC(=O)c2ccc([N+](=O)[O-])cc2)cc1,1.43,3.1,2.28,3.29,12,2.14,1.54,2.56,2.57,2.39,0.373,1.65,1.04,1.66,3.19,0.553,0.42,1.01,1.19,1.05
Cc1ccccc1C(=O)Oc1ccc(O)cc1,> 100,> 100,> 100,> 100,> 100,> 100,> 100,> 100,> 100,> 100,,,,,,,,,,
O=C(O)/C(Cl)=C(\Cl)C(=O)NC1C2CC3CC(C2)CC1C3 (stereo not given),> 100,> 100,> 100,> 100,> 100,> 100,> 100,> 100,> 100,> 100,,,,,,,,,,
Nc1ccccc1NC(=O)c1ccc(CCCC(=O)Nc2ccc(C3CC3N)cc2)cc1 (stereo not given),16,70.9,11.3,> 100,14.4,15.4,2.21,33.8,> 100,20.7,0.375,0.972,1.91,4.24,2.46,2.01,0.716,2.29,18.8,2.01
O=C(O)c1cc2ccccc2c(N=Nc2cc(C(F)(F)F)ccc2Cl)c1O,> 100,> 100,> 100,> 100,> 100,> 100,> 100,> 100,> 100,> 100,,,,,,,,,,
